US20050267204A1, “Synergistic gold-containing compositions” (MEDICAL INNOVATIONS LIMITED, priority 1996, published 2005)

Experiments:
Type in all cases: in vivo, BALB/c mice
epidermal thickness = assay: Time course of TPA effects on skin of mice: epidermal thickness; settings: for Increase in epidermal thickness: single application 100 μL TPA 0.01% in acetone
Experimental: Epidermal thickness was determined by image analysis. This image analysis system was a minicomputer (Tracor Northern TN8500) attached to a light microscope (Zeiss Axioplan) and a camcorder (Sony DXC-3000P). Sections were taken from each tissue block and 20 measurements were taken at fixed intervals from each section. The average value for the 20 measurements was obtained and entered as one value for each mouse. The mean and SEM for the six mice in each treatment group were calculated.
(§1) This study was conducted to determine the time course of effects produced by applying TPA to mice and killing at intervals of 1, 2, 3, 5 and 8 days. Peak times for epidermal hyperplasia, dermal inflammation and skin-fold thickness were determined. The object of this study was to determine the best time to sacrifice TPA-treated mice so as to obtain the maximum response to TPA. […] It was thus expected that a compromise time would have to be selected.
(§2) Forty two female BALB/c strain mice were divided into the treatment groups and the mice were treated with a single application (100 μL) of TPA (0.01% in acetone) and sacrificed at days 1, 2, 3, 5 and 8 and the time course of TPA effects on epidermal hyperplasia, dermal inflammatory cell infiltration and skin-fold thickness measured as described in Example 1.

[1] = test system: dermal inflammatory cell density; assay: Time course of TPA effects on skin of mice: dermal inflammatory cell density; settings: for Increase in dermal inflammatory cell density: single application 100 μL TPA 0.01% in acetone
Experimental: Infiltration of inflammatory cells was determined by the same image analysis system using the section taken from the block of mouse skin embedded in paraffin wax or Spurr's resin and stained with haematoxylin and eosin or toluidine blue respectively. For each section, 10 fields, unless otherwise stated, were chosen randomly and the cell density per mm^2 of field determined. The average value for the 10 fields was obtained and entered as one value for each mouse. The mean and SEM for the six mice in each treatment group were calculated.
The measurement of the inflammatory cell infiltration included the background values which included other materials in the dermis stained in the same way. However, the increase, if there is any, reflects the migration of inflammatory cells.
as §1, §2

skin-fold thickness = assay: Time course of TPA effects on skin of mice: skin-fold thickness; settings: for Increase in skin-fold thickness: single application 100 μL TPA 0.01% in acetone
Experimental: The back skin of shaved mice was folded and measured by using a “Etalon” micrometer screw gauge. One measurement was taken for each mouse.
as §1, §2

CCCCCCCCCCCCCC(=O)O[C@@H]1[C@@H](C)[C@@]2(O)[C@@H](C=C(CO)C[C@]3(O)C(=O)C(C)=C[C@@H]23)[C@@H]2C(C)(C)[C@]12OC(C)=O [TPA, 12-O-tetradecanoylphorbol 13-acetate]
Increase in epidermal thickness (epidermal thickness; Day 1): 326% | Increase in epidermal thickness (epidermal thickness; Day 2): 382% | Increase in epidermal thickness (epidermal thickness; Day 3): 393% | Increase in epidermal thickness (epidermal thickness; Day 5): 270% | Increase in epidermal thickness (epidermal thickness; Day 8): 130% | Time of peak effect, epidermal hyperplasia (epidermal thickness; single application of TPA): 72 h | Increase in dermal inflammatory cell density ([1]; Day 1): 397% | Increase in dermal inflammatory cell density ([1]; Day 2): 296% | Increase in dermal inflammatory cell density ([1]; Day 3): 272% | Increase in dermal inflammatory cell density ([1]; Day 5): 280% | Increase in dermal inflammatory cell density ([1]; Day 8): 225% | Time of peak effect, dermal inflammation ([1]; single application of TPA): 24 h | Increase in skin-fold thickness (skin-fold thickness; Day 1): 193% | Increase in skin-fold thickness (skin-fold thickness; Day 2): 142% | Increase in skin-fold thickness (skin-fold thickness; Day 3): 124% | Increase in skin-fold thickness (skin-fold thickness; Day 5): 116% | Increase in skin-fold thickness (skin-fold thickness; Day 8): 107% | Time of peak effect, skin-fold thickening (skin-fold thickness; single application of TPA): 24 h
